Results reported in PubChem BioAssay (NCI).
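Five concentrations, 48 hours, 96-well plates. Here, GI50 denotes the concentration required for 50% inhibition of growth. At the TGI there is no net growth.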

How the values were obtained:
Assay in all cases: NCI tumour cell line growth inhibition, 48 h
786-0 renal = tested on: 786-0 renal
A498 renal = tested on: A498 renal
A549 NSCLC = tested on: A549 NSCLC
ACHN renal = tested on: ACHN renal
BT-549 breast = tested on: BT-549 breast
CAKI-1 renal = tested on: CAKI-1 renal
CCRF-CEM leukemia = tested on: CCRF-CEM leukemia
COLO 205 colon = tested on: COLO 205 colon
DU-145 prostate = tested on: DU-145 prostate
EKVX NSCLC = tested on: EKVX NSCLC
HCC-2998 colon = tested on: HCC-2998 colon
HCT-116 colon = tested on: HCT-116 colon
HCT-15 colon = tested on: HCT-15 colon
HL-60(TB) leukemia = tested on: HL-60(TB) leukemia
HOP-62 NSCLC = tested on: HOP-62 NSCLC
HOP-92 NSCLC = tested on: HOP-92 NSCLC
HS 578T breast = tested on: HS 578T breast
HT29 colon = tested on: HT29 colon
IGROV1 ovarian = tested on: IGROV1 ovarian
KM12 colon = tested on: KM12 colon
LOX IMVI melanoma = tested on: LOX IMVI melanoma
M14 melanoma = tested on: M14 melanoma
MALME-3M melanoma = tested on: MALME-3M melanoma
MCF7 breast = tested on: MCF7 breast
MDA-MB-231 breast = tested on: MDA-MB-231 breast
MDA-MB-435 = tested on: MDA-MB-435
MOLT-4 leukemia = tested on: MOLT-4 leukemia
NCI-H226 lung = tested on: NCI-H226 lung
NCI-H23 lung = tested on: NCI-H23 lung
NCI-H460 lung = tested on: NCI-H460 lung
NCI-H522 lung = tested on: NCI-H522 lung
NCI/ADR-RES ovarian = tested on: NCI/ADR-RES ovarian
OVCAR-3 ovarian = tested on: OVCAR-3 ovarian
OVCAR-4 ovarian = tested on: OVCAR-4 ovarian
OVCAR-5 ovarian = tested on: OVCAR-5 ovarian
OVCAR-8 ovarian = tested on: OVCAR-8 ovarian
PC-3 prostate = tested on: PC-3 prostate
RPMI-8226 leukemia = tested on: RPMI-8226 leukemia
RXF 393 renal = tested on: RXF 393 renal
SF-268 CNS = tested on: SF-268 CNS
SF-295 CNS = tested on: SF-295 CNS
SF-539 CNS = tested on: SF-539 CNS
SK-MEL-28 melanoma = tested on: SK-MEL-28 melanoma
SK-MEL-5 melanoma = tested on: SK-MEL-5 melanoma
SK-OV-3 ovarian = tested on: SK-OV-3 ovarian
SN12C renal = tested on: SN12C renal
SNB-19 CNS = tested on: SNB-19 CNS
SNB-75 CNS = tested on: SNB-75 CNS
SR leukemia = tested on: SR leukemia
SW-620 colon = tested on: SW-620 colon
T-47D breast = tested on: T-47D breast
TK-10 renal = tested on: TK-10 renal
U251 CNS = tested on: U251 CNS
UACC-257 melanoma = tested on: UACC-257 melanoma
UACC-62 melanoma = tested on: UACC-62 melanoma
UO-31 renal = tested on: UO-31 renal

`COC(CCP(=O)(c1ccccc1)c1ccccc1)(C(=O)c1ccccc1)c1ccccc1` (configuration not stated) showed a GI50 (786-0 renal) of 10.3 µM, a TGI (786-0 renal) of 28 µM and a GI50 (A498 renal) of 3.4 µM. It also gave a TGI (A498 renal) of 16.8 µM, a GI50 (A549 NSCLC) of 3.77 µM and a TGI (A549 NSCLC) of 16.5 µM. The GI50 (ACHN renal) was 4.98 µM, the TGI (ACHN renal) was 17 µM and the GI50 (BT-549 breast) was 4.55 µM. It also gave a TGI (BT-549 breast) of 15.6 µM, a GI50 (CAKI-1 renal) of 2.95 µM and a TGI (CAKI-1 renal) of 12.2 µM. It also gave a GI50 (CCRF-CEM leukemia) of 2.27 µM, a TGI (CCRF-CEM leukemia) of 42 µM and a GI50 (COLO 205 colon) of 1.64 µM. The TGI (COLO 205 colon) was 3.82 µM, the GI50 (DU-145 prostate) was 12 µM and the TGI (DU-145 prostate) was 24.3 µM. The GI50 (EKVX NSCLC) was 4.37 µM, the TGI (EKVX NSCLC) was 16.9 µM and the GI50 (HCC-2998 colon) was 4.11 µM. The TGI (HCC-2998 colon) was 17.9 µM, the GI50 (HCT-116 colon) was 4.48 µM and the TGI (HCT-116 colon) was 16.5 µM. For the same compound, the GI50 (HCT-15 colon) was 3.19 µM, the TGI (HCT-15 colon) was 13.6 µM and the GI50 (HL-60(TB) leukemia) was 2.29 µM. The TGI (HL-60(TB) leukemia) was over 100 µM, the GI50 (HOP-62 NSCLC) was 11 µM and the TGI (HOP-62 NSCLC) was 24.8 µM. The GI50 (HOP-92 NSCLC) was 1.42 µM, the TGI (HOP-92 NSCLC) was 16.6 µM and the GI50 (HS 578T breast) was 4.81 µM. For the same compound, the TGI (HS 578T breast) was 23.1 µM, the GI50 (HT29 colon) was 4.65 µM and the TGI (HT29 colon) was 19.1 µM. The GI50 (IGROV1 ovarian) was 8.06 µM, the TGI (IGROV1 ovarian) was 25.4 µM and the GI50 (KM12 colon) was 3.06 µM. For the same compound, the TGI (KM12 colon) was 13.4 µM, the GI50 (LOX IMVI melanoma) was 5.12 µM and the TGI (LOX IMVI melanoma) was 19.6 µM. For the same compound, the GI50 (M14 melanoma) was 3.5 µM, the TGI (M14 melanoma) was 15.3 µM and the GI50 (MALME-3M melanoma) was 2.78 µM. The TGI (MALME-3M melanoma) was 15.4 µM, the GI50 (MCF7 breast) was 2.39 µM and the TGI (MCF7 breast) was 11.3 µM. It also gave a GI50 (MDA-MB-231 breast) of 2.69 µM, a TGI (MDA-MB-231 breast) of 17 µM and a GI50 (MDA-MB-435) of 3.64 µM. It also gave a TGI (MDA-MB-435) of 15 µM, a GI50 (MOLT-4 leukemia) of 2.06 µM and a TGI (MOLT-4 leukemia) of over 100 µM. It also gave a GI50 (NCI-H226 lung) of 2.19 µM, a TGI (NCI-H226 lung) of 15.7 µM and a GI50 (NCI-H23 lung) of 4.5 µM. The TGI (NCI-H23 lung) was 17.8 µM, the GI50 (NCI-H460 lung) was 3.43 µM and the TGI (NCI-H460 lung) was 14 µM. It also gave a GI50 (NCI-H522 lung) of 4.71 µM, a TGI (NCI-H522 lung) of 26 µM and a GI50 (NCI/ADR-RES ovarian) of 4.93 µM. For the same compound, the TGI (NCI/ADR-RES ovarian) was 20.9 µM, the GI50 (OVCAR-3 ovarian) was 5.26 µM and the TGI (OVCAR-3 ovarian) was 18.2 µM. The GI50 (OVCAR-4 ovarian) was 5.57 µM, the TGI (OVCAR-4 ovarian) was 21.4 µM and the GI50 (OVCAR-5 ovarian) was 10.1 µM. It also gave a TGI (OVCAR-5 ovarian) of 23.7 µM, a GI50 (OVCAR-8 ovarian) of 7.95 µM and a TGI (OVCAR-8 ovarian) of 27.8 µM. The GI50 (PC-3 prostate) was 2.15 µM, the TGI (PC-3 prostate) was 12.3 µM and the GI50 (RPMI-8226 leukemia) was 0.433 µM. It also gave a TGI (RPMI-8226 leukemia) of 2.6 µM, a GI50 (RXF 393 renal) of 0.213 µM and a TGI (RXF 393 renal) of 0.917 µM. For the same compound, the GI50 (SF-268 CNS) was 10.2 µM, the TGI (SF-268 CNS) was 21.9 µM and the GI50 (SF-295 CNS) was 0.135 µM. It also gave a TGI (SF-295 CNS) of 1.49 µM, a GI50 (SF-539 CNS) of 10.2 µM and a TGI (SF-539 CNS) of 21.9 µM. For the same compound, the GI50 (SK-MEL-28 melanoma) was 6.95 µM, the TGI (SK-MEL-28 melanoma) was 19.9 µM and the GI50 (SK-MEL-5 melanoma) was 2.39 µM. It also gave a TGI (SK-MEL-5 melanoma) of 10.9 µM, a GI50 (SK-OV-3 ovarian) of 8.05 µM and a TGI (SK-OV-3 ovarian) of 21.8 µM. For the same compound, the GI50 (SN12C renal) was 5.23 µM, the TGI (SN12C renal) was 20 µM and the GI50 (SNB-19 CNS) was 5.75 µM. For the same compound, the TGI (SNB-19 CNS) was 19.1 µM, the GI50 (SNB-75 CNS) was 5.76 µM and the TGI (SNB-75 CNS) was 22 µM. It also gave a GI50 (SR leukemia) of 0.967 µM, a TGI (SR leukemia) of over 100 µM and a GI50 (SW-620 colon) of 3.86 µM. For the same compound, the TGI (SW-620 colon) was 15.7 µM, the GI50 (T-47D breast) was 2.06 µM and the TGI (T-47D breast) was 12.3 µM. For the same compound, the GI50 (TK-10 renal) was 2.94 µM, the TGI (TK-10 renal) was 14.1 µM and the GI50 (U251 CNS) was 5.5 µM. The TGI (U251 CNS) was 18.4 µM, the GI50 (UACC-257 melanoma) was 3.11 µM and the TGI (UACC-257 melanoma) was 11.8 µM. The GI50 (UACC-62 melanoma) was 2.39 µM, the TGI (UACC-62 melanoma) was 15.1 µM and the GI50 (UO-31 renal) was 2.46 µM. It also gave a TGI (UO-31 renal) of 16.9 µM.
